The record followed here is US20250263390A1, “NOVEL SUBSTITUTED 6,7-DIHYDRO-5H-BENZO[7]ANNULENE COMPOUNDS AND THEIR DERIVATIVES, PROCESSES FOR THEIR PREPARATION AND THERAPEUTIC USES THEREOF” (SANOFI, priority 2022, published 2025).

The target in the experiment is T1, ERα (Homo sapiens, UniProt P03372).
T1 construct: host or cells: MCF7
T1 sequence (P03372 1-595): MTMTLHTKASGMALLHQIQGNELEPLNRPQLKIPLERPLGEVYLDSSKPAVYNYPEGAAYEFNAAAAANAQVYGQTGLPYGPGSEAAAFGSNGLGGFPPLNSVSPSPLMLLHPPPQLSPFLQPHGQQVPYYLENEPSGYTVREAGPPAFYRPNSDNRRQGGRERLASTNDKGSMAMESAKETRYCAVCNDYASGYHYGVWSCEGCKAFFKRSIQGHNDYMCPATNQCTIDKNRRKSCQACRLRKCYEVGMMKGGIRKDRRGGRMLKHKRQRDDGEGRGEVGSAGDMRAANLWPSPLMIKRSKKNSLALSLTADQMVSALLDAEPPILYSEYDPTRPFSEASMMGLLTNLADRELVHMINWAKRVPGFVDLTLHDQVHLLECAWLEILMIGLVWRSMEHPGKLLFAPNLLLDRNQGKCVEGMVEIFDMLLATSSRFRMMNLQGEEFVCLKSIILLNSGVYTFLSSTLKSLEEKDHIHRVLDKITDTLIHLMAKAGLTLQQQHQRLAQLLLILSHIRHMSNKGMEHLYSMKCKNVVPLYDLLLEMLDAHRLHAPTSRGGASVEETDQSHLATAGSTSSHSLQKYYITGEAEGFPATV
In words: Estrogen receptor degradation activity: breast cancer cell ERα in cell western assay. The settings on record: MCF7 cells, 4 hours, relative to fulvestrant 0.1 μM positive control. It counts as cell-based. The procedure:
Test: Estrogen Receptor Degradation Activity Said test involves measuring the in vitro degradation activity of the compounds of the Table 1a. The measurements of the degradation activities were made using a breast cancer cell ERα in cell western assay as described hereunder. MCF7 cells (ATCC) were seeded in 384 wells microplate (collagen coated) at a concentration of 10000 cells/30 μL per well in red phenol free MEM alpha medium (invitrogen) containing 5% charcoal dextran striped FBS. The following day, 9 points serial 1:5 dilution of each compound was added to the cells in 2.5p L at final concentrations ranging from 0.3-0.0000018 μM (in table 2), or 0.1 μM for fulvestrant (using as positive control). At 4 hours post compound addition the cells were fixed by adding 25 μL of formalin (final concentration 5% formalin containing 0.1% triton) for 10 minutes at room temperature and then washed twice with PBS. Then, 50 μL of LI-COR blocking buffer containing 0.1% Triton was added to plate for 30 minutes at room temperature. LI-COR blocking buffer was removed and cells were incubated overnight at cold room with 50 μL anti-ER rabbit monoclonal antibody (Thermo scientific MA1-39540) diluted at 1:1000 in LI-COR blocking buffer containing 0.1% tween-20. Wells which were treated with blocking buffer but no antibody were used as background control. Wells were washed twice with PBS (0.1% tween-20) and incubated at 37° C. for 60 minutes in LI-COR (0.1% tween-20) containing goat anti-rabbit antibody Alexa 488 (1:1000) and Syto-64 a DNA dye (2 μM final concentration). Cells were then washed 3 times in PBS and scanned in ACUMEN explorer (TTP-Labtech). Integrated intensities in the green fluorescence and red fluorescence were measured to determine the levels of ERα and DNA respectively. The degradation activity with respect to estrogen receptors in this test is given by the concentration which degrades 50% of the estrogen receptor (or IC50) in nM. The % of ERα levels decrease were determined as follows: % inhibition=100*(1−(sample−fulvestrant: DMSO−fulvestrant)).
`O=C(O)c1ccc2c(c1)CCCC(c1ccc(C(F)(F)F)cc1C(F)(F)F)=C2c1ccc(CC2CN(CCCF)C2)cc1` [Compound 39, 8-(2,4-bis(trifluoromethyl)phenyl)-9-(4-((1-(3-fluoropropyl)azetidin-3-yl)methyl)phenyl)-6,7-dihydro-5H-benzo[7]annulene-3-carboxylic acid]: the “% Degradation At 0.3 μM” value came to 95%.
As for `Cc1cccc(Cl)c1C1=C(c2ccc(CC3CN(CCCF)C3)cc2)c2ccc(C(=O)O)cc2CCC1.Cl` [Compound 40, 8-(2-chloro-6-methylphenyl)-9-(4-((1-(3-fluoropropyl)azetidin-3-yl)methyl)phenyl)-6,7-dihydro-5H-benzo[7]annulene-3-carboxylic acid, hydrochloride], the “% Degradation At 0.3 μM” value is 91%.
To `Cc1cccc(F)c1C1=C(c2ccc(CC3CN(CCCF)C3)cc2)c2ccc(C(=O)O)cc2CCC1.Cl` [Compound 41, 8-(2-fluoro-6-methylphenyl)-9-(4-((1-(3-fluoropropyl)azetidin-3-yl)methyl)phenyl)-6,7-dihydro-5H-benzo[7]annulene-3-carboxylic acid, hydrochloride] belongs 91%.
As to `Cc1cc(C2=C(c3ccc(CC4CN(CCCF)C4)cc3)c3ccc(C(=O)O)cc3CCC2)ccc1C(F)F.Cl` [Compound 42, 8-(4-(difluoromethyl)-3-methylphenyl)-9-(4-((1-(3-fluoropropyl)azetidin-3-yl)methyl)phenyl)-6,7-dihydro-5H-benzo[7]annulene-3-carboxylic acid, hydrochloride], the “% Degradation At 0.3 μM” value is 91%.
In the case of `O=C(O)c1ccc2c(c1)CCCC(c1c(F)cccc1OC(F)(F)F)=C2c1ccc(CC2CN(CCCF)C2)cc1` [Compound 43, 8-(2-fluoro-6-(trifluoromethoxy)phenyl)-9-(4-((1-(3-fluoropropyl)azetidin-3-yl)methyl)phenyl)-6,7-dihydro-5H-benzo[7]annulene-3-carboxylic acid], the “% Degradation At 0.3 μM” value is reported as 92%.
Consider `COc1cccc(Cl)c1C1=C(c2ccc(CC3CN(CCCF)C3)cc2)c2ccc(C(=O)O)cc2CCC1` [Compound 44, 8-(2-chloro-6-methoxyphenyl)-9-(4-((1-(3-fluoropropyl)azetidin-3-yl)methyl)phenyl)-6,7-dihydro-5H-benzo[7]annulene-3-carboxylic acid], for which the “% Degradation At 0.3 μM” value was 92%.
The result for `COc1cccc(F)c1C1=C(c2ccc(CC3CN(CCCF)C3)cc2)c2ccc(C(=O)O)cc2CCC1` [Compound 45, 8-(2-fluoro-6-methoxyphenyl)-9-(4-((1-(3-fluoropropyl)azetidin-3-yl)methyl)phenyl)-6,7-dihydro-5H-benzo[7]annulene-3-carboxylic acid] reads 92%; that for `COc1cccc(C2=C(c3ccc(CC4CN(CCCF)C4)cc3)c3ccc(C(=O)O)cc3CCC2)c1OC` [Compound 46, 8-(2,3-dimethoxyphenyl)-9-(4-((1-(3-fluoropropyl)azetidin-3-yl)methyl)phenyl)-6,7-dihydro-5H-benzo[7]annulene-3-carboxylic acid], 93%.
To `O=C(O)c1ccc2c(c1)CCCC(c1ccc(F)c(O)c1F)=C2c1ccc(CC2CN(CCCF)C2)cc1` [Compound 47, 8-(2,4-difluoro-3-hydroxyphenyl)-9-(4-((1-(3-fluoropropyl)azetidin-3-yl)methyl)phenyl)-6,7-dihydro-5H-benzo[7]annulene-3-carboxylic acid] belongs 100%; to `COc1cccc(C)c1C1=C(c2ccc(CC3CN(CCCF)C3)cc2)c2ccc(C(=O)O)cc2CCC1.Cl` [Compound 48, 9-(4-((1-(3-fluoropropyl)azetidin-3-yl)methyl)phenyl)-8-(2-methoxy-6-methylphenyl)-6,7-dihydro-5H-benzo[7]annulene-3-carboxylic acid, hydrochloride], 92%; to `COc1c(C)cccc1C1=C(c2ccc(CC3CN(CCCF)C3)cc2)c2ccc(C(=O)O)cc2CCC1.Cl` [Compound 49, 9-(4-((1-(3-fluoropropyl)azetidin-3-yl)methyl)phenyl)-8-(2-methoxy-3-methylphenyl)-6,7-dihydro-5H-benzo[7]annulene-3-carboxylic acid, hydrochloride], 92%.
Take `O=C(O)c1ccc2c(c1)CCCC(c1c(Cl)cccc1OC(F)(F)F)=C2c1ccc(CC2CN(CCCF)C2)cc1` [Compound 50, 8-(2-chloro-6-(trifluoromethoxy)phenyl)-9-(4-((1-(3-fluoropropyl)azetidin-3-yl)methyl)phenyl)-6,7-dihydro-5H-benzo[7]annulene-3-carboxylic acid]: the “% Degradation At 0.3 μM” value is given as 91%.
To `COc1cccc(OC)c1C1=C(c2ccc(CC3CN(CCCF)C3)cc2)c2ccc(C(=O)O)cc2CCC1.Cl` [Compound 51, 8-(2,6-dimethoxyphenyl)-9-(4-((1-(3-fluoropropyl)azetidin-3-yl)methyl)phenyl)-6,7-dihydro-5H-benzo[7]annulene-3-carboxylic acid, hydrochloride] belongs 92%; to `O=C(O)c1ccc2c(c1)CCCC(c1ccc(C(F)(F)F)c(O)c1)=C2c1ccc(CC2CN(CCCF)C2)cc1` [Compound 52, 9-(4-((1-(3-fluoropropyl)azetidin-3-yl)methyl)phenyl)-8-(3-hydroxy-4-(trifluoromethyl)phenyl)-6,7-dihydro-5H-benzo[7]annulene-3-carboxylic acid], 90%; to `Cc1cc(C)c(C2=C(c3ccc(CC4CN(CCCF)C4)cc3)c3ccc(C(=O)O)cc3CCC2)c(Cl)c1` [Compound 53, 8-(2-chloro-4,6-dimethylphenyl)-9-(4-((1-(3-fluoropropyl)azetidin-3-yl)methyl)phenyl)-6,7-dihydro-5H-benzo[7]annulene-3-carboxylic acid], 88%.
Take `Cc1cccc(C2=C(c3ccc(CC4CN(CCCF)C4)cc3)c3ccc(C(=O)O)cc3CCC2)c1C(F)F.Cl` [Compound 54, 8-(2-(difluoromethyl)-3-methylphenyl)-9-(4-((1-(3-fluoropropyl)azetidin-3-yl)methyl)phenyl)-6,7-dihydro-5H-benzo[7]annulene-3-carboxylic acid, hydrochloride]: the “% Degradation At 0.3 μM” value turned out to be 90%.
In the case of `COc1cc(C)c(C2=C(c3ccc(CC4CN(CCCF)C4)cc3)c3ccc(C(=O)O)cc3CCC2)c(C)c1` [Compound 55, 9-(4-((1-(3-fluoropropyl)azetidin-3-yl)methyl)phenyl)-8-(4-methoxy-2,6-dimethylphenyl)-6,7-dihydro-5H-benzo[7]annulene-3-carboxylic acid], the “% Degradation At 0.3 μM” value is reported as 95%.
The result for `Cc1ccc(C2=C(c3ccc(CC4CN(CCCF)C4)cc3)c3ccc(C(=O)O)cc3CCC2)cc1O` [Compound 56, 9-(4-((1-(3-fluoropropyl)azetidin-3-yl)methyl)phenyl)-8-(3-hydroxy-4-methylphenyl)-6,7-dihydro-5H-benzo[7]annulene-3-carboxylic acid] reads 95%; that for `Cc1ccc(C2=C(c3ccc(CC4CN(CCCF)C4)cc3)c3ccc(C(=O)O)cc3CCC2)c(C)c1F` [Compound 57, 8-(3-fluoro-2,4-dimethylphenyl)-9-(4-((1-(3-fluoropropyl)azetidin-3-yl)methyl)phenyl)-6,7-dihydro-5H-benzo[7]annulene-3-carboxylic acid], 92%.
`Cc1ccc(C2=C(c3ccc(CC4CN(CCCF)C4)cc3)c3ccc(C(=O)O)cc3CCC2)c(C)c1Cl` [Compound 58, 8-(3-chloro-2,4-dimethylphenyl)-9-(4-((1-(3-fluoropropyl)azetidin-3-yl)methyl)phenyl)-6,7-dihydro-5H-benzo[7]annulene-3-carboxylic acid]: the “% Degradation At 0.3 μM” value is listed as 90%.
